The values below come from ChEMBL document CHEMBL1147701, “Novel 4-anilinoquinazolines with C-6 carbon-linked side chains: synthesis and structure-activity relationship of a series of potent, orally active, EGF receptor tyrosine kinase inhibitors” (Bioorg Med Chem Lett, 2006).

Assay [1] has as its target AMP-activated protein kinase, AMPK. The assay is described as follows: Inhibition of AMPK. It is filed as protein-complex assay.
The target of assay [2] is Vascular endothelial growth factor receptor 2 (Homo sapiens, UniProt P35968).
The target of assay [3] is Glycogen synthase kinase-3 beta (Homo sapiens, UniProt P49841). Description: Inhibition of GSK3-beta.
In assay [4] the target is cAMP-dependent protein kinase (PKA) (Homo sapiens, UniProt P22694+P17612+P22612). The assay is described as follows: Inhibition of PKA. It is filed as protein assay.
Assay [5] deals with c-Jun N-terminal kinase, JNK (Homo sapiens, UniProt P45983+P53779+P45984). Description: Inhibition of JNK. It counts as protein assay.
Assay [6] has as its target Proto-oncogene tyrosine-protein kinase Src (Homo sapiens, UniProt P12931). Description: Inhibition of Src.
Assay [7] has as its target Mitogen-activated protein kinase 1 (Homo sapiens, UniProt P28482). Description: Inhibition of MAPK.
For assay [8], the target named is T1, Serine/threonine-protein kinase Chk1 (Homo sapiens, UniProt O14757).
T1 sequence (O14757 whole entry): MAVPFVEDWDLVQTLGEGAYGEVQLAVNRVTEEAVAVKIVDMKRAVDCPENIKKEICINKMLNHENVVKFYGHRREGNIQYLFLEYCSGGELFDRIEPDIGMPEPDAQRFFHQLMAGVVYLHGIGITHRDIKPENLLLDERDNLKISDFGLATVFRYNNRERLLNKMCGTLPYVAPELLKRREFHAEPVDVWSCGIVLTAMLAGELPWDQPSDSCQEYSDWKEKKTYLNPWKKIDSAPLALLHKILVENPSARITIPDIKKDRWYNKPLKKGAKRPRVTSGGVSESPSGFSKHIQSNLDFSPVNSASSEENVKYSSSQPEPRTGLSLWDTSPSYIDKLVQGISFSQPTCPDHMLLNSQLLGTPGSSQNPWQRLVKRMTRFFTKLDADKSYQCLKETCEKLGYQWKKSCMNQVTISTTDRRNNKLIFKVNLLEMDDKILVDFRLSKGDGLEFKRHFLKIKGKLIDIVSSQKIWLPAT
Description: Inhibition of CHK1.

Assay [9] has as its target T2, Serine/threonine-protein kinase Sgk1 (Homo sapiens, UniProt O00141).
T2 sequence (O00141 whole entry): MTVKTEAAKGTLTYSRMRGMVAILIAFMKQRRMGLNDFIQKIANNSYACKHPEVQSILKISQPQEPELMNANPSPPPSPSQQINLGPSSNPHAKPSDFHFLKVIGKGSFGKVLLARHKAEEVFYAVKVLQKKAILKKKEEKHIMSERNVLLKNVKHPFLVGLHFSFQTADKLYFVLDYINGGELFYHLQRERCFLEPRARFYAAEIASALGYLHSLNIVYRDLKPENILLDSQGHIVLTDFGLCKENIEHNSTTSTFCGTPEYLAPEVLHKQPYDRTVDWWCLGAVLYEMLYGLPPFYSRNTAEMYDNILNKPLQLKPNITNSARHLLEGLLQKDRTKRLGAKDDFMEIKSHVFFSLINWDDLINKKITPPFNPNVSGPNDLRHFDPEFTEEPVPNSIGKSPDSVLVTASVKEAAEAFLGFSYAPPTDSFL
Description: Inhibition of SGK.

The target in assay [10] is Rho-associated protein kinase 2 (Homo sapiens, UniProt O75116). The assay is described as follows: Inhibition of ROCK2.
The target in a further assay is MAP kinase p38 (Homo sapiens, UniProt O15264+Q15759+Q16539+P53778).
Assay [11] is described as follows: Inhibition of CDK.
Assay [12] has as its target Tyrosine-protein kinase Lck (Homo sapiens, UniProt P06239).

pIC50: −log10 of the molar value. A value given as a limit tells only on which side of the number the result lay.

Chain of Proto-oncogene tyrosine-protein kinase Src (P12931 2-536 limits assumed): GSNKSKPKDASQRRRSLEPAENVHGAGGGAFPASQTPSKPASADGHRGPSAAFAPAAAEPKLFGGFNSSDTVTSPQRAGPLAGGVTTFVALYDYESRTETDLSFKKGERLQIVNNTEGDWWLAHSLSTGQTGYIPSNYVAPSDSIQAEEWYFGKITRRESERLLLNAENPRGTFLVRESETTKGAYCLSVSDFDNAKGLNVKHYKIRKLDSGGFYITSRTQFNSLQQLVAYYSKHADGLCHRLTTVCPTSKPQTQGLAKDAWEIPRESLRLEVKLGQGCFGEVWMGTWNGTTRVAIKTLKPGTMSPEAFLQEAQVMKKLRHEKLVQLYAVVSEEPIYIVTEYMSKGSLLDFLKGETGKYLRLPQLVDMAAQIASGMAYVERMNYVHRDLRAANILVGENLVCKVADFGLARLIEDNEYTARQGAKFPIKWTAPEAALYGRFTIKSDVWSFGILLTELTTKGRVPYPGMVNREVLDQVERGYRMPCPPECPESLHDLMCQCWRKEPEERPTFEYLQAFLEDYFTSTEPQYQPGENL
Chain of Tyrosine-protein kinase Lck (P06239 whole entry): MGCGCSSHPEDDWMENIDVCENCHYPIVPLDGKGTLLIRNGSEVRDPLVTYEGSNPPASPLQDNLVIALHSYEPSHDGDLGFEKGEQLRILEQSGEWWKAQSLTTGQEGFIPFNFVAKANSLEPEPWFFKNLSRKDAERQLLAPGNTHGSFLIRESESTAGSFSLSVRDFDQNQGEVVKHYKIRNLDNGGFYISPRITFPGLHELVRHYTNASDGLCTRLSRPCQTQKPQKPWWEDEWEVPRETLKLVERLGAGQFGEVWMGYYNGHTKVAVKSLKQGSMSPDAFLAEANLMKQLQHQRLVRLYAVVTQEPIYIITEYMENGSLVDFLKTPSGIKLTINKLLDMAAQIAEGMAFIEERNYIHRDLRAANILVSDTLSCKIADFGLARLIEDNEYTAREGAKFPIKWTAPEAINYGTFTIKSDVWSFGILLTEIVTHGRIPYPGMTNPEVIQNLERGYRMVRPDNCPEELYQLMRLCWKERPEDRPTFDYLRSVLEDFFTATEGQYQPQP
Chain of Vascular endothelial growth factor receptor 2 (P35968 whole entry): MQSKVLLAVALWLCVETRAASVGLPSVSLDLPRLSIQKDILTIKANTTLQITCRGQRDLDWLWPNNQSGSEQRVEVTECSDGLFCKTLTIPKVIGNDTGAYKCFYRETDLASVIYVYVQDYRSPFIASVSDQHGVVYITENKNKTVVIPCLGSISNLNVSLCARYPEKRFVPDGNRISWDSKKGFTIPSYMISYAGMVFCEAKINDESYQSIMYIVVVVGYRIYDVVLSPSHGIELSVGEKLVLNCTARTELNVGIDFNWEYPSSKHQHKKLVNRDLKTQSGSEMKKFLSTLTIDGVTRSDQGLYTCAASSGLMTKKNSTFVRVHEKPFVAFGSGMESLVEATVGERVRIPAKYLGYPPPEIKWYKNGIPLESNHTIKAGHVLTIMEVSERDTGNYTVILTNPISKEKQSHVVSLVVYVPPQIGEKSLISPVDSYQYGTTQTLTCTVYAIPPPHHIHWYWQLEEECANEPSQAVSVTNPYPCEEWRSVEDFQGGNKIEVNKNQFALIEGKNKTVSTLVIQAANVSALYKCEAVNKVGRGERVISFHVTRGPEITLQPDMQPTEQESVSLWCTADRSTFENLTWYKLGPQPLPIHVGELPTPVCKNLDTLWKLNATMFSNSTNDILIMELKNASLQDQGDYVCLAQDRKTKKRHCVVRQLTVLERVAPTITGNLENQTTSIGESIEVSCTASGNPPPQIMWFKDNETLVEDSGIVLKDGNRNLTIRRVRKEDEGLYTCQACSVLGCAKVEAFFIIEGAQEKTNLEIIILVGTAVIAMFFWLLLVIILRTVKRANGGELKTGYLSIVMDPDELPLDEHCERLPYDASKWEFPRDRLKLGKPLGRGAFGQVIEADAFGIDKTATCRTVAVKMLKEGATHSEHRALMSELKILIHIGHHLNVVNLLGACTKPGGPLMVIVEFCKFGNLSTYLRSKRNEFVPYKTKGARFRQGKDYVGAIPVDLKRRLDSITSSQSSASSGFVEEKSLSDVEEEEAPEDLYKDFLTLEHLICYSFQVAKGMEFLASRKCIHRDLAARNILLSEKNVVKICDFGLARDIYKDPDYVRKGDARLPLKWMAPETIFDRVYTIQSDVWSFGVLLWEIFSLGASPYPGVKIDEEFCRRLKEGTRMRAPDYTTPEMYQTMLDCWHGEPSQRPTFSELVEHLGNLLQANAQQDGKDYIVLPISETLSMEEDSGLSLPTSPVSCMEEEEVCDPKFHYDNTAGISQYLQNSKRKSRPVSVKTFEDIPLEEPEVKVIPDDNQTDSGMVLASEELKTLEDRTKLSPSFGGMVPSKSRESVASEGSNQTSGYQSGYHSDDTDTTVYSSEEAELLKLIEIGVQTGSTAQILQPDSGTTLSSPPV
Chain of Glycogen synthase kinase-3 beta (P49841 whole entry): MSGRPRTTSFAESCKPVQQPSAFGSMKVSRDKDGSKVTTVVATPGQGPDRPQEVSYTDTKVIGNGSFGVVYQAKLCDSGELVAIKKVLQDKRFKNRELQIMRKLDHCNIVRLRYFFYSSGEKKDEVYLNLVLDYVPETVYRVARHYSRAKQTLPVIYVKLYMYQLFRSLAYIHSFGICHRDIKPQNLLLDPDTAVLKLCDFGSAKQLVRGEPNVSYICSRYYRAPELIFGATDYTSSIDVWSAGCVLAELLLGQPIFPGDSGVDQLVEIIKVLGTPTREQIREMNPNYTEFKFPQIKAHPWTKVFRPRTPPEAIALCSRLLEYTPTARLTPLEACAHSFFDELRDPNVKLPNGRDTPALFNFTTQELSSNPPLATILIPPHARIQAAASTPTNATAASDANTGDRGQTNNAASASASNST
Chain of Mitogen-activated protein kinase 1 (P28482 whole entry): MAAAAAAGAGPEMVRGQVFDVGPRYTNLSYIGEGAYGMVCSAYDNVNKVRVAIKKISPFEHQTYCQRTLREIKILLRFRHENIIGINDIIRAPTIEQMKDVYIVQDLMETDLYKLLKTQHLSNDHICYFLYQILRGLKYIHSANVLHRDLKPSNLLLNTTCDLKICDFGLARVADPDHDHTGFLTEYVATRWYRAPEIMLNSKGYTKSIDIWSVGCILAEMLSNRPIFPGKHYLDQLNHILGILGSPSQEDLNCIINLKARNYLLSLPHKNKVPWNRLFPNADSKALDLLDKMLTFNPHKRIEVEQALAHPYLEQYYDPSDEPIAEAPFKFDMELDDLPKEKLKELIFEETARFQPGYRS
Chain of Rho-associated protein kinase 2 (O75116 whole entry): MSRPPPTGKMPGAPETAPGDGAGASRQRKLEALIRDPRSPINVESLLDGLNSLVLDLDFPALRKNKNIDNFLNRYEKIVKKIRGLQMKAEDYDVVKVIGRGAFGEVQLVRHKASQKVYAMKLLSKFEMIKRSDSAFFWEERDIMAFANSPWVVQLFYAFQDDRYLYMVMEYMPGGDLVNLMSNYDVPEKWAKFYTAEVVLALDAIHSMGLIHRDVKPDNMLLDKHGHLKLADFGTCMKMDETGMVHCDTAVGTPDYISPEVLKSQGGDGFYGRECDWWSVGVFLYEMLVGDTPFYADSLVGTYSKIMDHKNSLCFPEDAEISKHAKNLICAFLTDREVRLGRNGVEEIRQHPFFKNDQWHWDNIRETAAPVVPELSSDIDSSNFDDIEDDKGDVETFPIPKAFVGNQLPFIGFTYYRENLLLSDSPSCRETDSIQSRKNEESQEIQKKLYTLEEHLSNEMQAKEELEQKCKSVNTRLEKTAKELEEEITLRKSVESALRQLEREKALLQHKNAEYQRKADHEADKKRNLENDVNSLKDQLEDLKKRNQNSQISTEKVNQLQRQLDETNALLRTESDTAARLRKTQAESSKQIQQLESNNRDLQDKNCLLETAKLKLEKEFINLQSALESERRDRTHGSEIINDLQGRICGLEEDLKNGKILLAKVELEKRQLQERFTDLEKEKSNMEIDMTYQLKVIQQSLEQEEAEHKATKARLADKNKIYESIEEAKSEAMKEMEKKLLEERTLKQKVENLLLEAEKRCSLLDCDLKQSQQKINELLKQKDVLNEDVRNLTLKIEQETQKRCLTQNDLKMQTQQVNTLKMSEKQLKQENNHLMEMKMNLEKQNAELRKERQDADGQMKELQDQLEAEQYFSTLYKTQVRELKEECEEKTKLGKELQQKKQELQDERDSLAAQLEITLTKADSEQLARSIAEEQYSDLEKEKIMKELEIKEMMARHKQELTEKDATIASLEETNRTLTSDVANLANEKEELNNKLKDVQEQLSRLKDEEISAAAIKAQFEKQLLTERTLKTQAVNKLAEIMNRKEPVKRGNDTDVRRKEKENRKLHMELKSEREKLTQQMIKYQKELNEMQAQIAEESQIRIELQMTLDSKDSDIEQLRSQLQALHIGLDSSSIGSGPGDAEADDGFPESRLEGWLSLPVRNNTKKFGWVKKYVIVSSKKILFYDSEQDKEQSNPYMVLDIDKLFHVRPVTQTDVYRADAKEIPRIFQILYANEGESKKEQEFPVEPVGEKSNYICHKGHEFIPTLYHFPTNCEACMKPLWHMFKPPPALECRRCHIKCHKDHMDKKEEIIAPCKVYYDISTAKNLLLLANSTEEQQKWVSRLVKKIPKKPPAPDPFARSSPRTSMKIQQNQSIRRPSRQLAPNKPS

In the case of `COc1cc2ncnc(Nc3cccc(Cl)c3F)c2cc1CN1CCC[C@@H]1C(=O)N(C)C`, the pIC50 in assay [1], in assay [2], in assay [3], in assay [6], in [7] and in assay [8] was < 5.00 throughout. In addition, the pIC50 in assay [9] and in assay [10] was < 5.00 in each case. The half-maximal inhibitory concentration (IC50) in assay [4] and in [5] was > 10 µM throughout.
On to `COc1cc2ncnc(Nc3cccc(Cl)c3F)c2cc1CN1CCN(C)CC1C(N)=O` (stereo unspecified), for which the half-inhibitory concentration (IC50) (at MAP kinase p38; in assay [4]; in assay [5]) was > 10 µM in each case. For the same compound, the negative-log IC50 (pIC50) in assay [1], in assay [2], in assay [3], in assay [6], in assay [7] and in assay [8] was < 5.00 throughout. The negative logarithm of the IC50 (pIC50) in assay [9] and in [10] was < 5.00 throughout.
`COc1cc2ncnc(Nc3cccc(Cl)c3F)c2cc1CN1C[C@H](OC)C[C@@H]1C(N)=O`: the pIC50 in assay [1], in [2], in assay [3], in [6], in assay [7] and in [8] was < 5.00 in each case. For the same compound, the pIC50 in [9] and in [10] was < 5.00 each time. Besides, the half-inhibitory concentration (IC50) in assay [5] is > 10 µM.
In the case of `COc1cc2ncnc(Nc3cccc(Cl)c3F)c2cc1CN1CCC1C(N)=O` (stereo unspecified), the IC50 (at MAP kinase p38; in [4]; in assay [5]) was > 10 µM throughout. The negative-log IC50 (pIC50) in assay [1], in assay [2], in [3], in assay [6], in [7] and in [8] was < 5.00 each time. For the same compound, the pIC50 in assay [9] and in [10] was < 5.00 each time.
With `COC[C@@H](C(N)=O)N(C)Cc1cc2c(Nc3cccc(Cl)c3F)ncnc2cc1OC`, the IC50 (against MAP kinase p38; in assay [4]; in [5]) was > 10 µM in each case. Moreover, the negative logarithm of the IC50 (pIC50) in [1], in assay [2], in assay [3], in assay [6], in assay [7] and in assay [8] was < 5.00 each time. In addition, the pIC50 in [9] and in assay [10] was < 5.00 throughout.
Turning to `COc1cc2ncnc(Nc3cccc(Cl)c3F)c2cc1CN1CCC[C@@H]1C(N)=O`, the negative-log IC50 (pIC50) in assay [1], in [2], in [3], in [11], in assay [6] and in assay [12] was < 5.00 each time. For the same compound, the pIC50 in assay [7], in assay [8], in assay [9] and in assay [10] was < 5.00 each time. In addition, the half-inhibitory concentration (IC50) in assay [4] and in assay [5] was > 10 µM each time.
`COc1cc2ncnc(Nc3cccc(Cl)c3F)c2cc1CN1CCCC1`: the negative-log IC50 (pIC50) in assay [1], in assay [2], in assay [3], in assay [6], in assay [12] and in assay [7] was < 5.00 throughout. Moreover, the negative logarithm of the IC50 (pIC50) in assay [8], in [9] and in assay [10] was < 5.00 throughout. For the same compound, the half-maximal inhibitory concentration (IC50) in assay [4] and in assay [5] was > 10 µM in each case.
`COc1cc2ncnc(Nc3cccc(Cl)c3F)c2cc1CN1CCOCC1C(N)=O` (stereo unspecified): the pIC50 in assay [1], in assay [2], in assay [3], in assay [6], in [12] and in assay [7] was < 5.00 in each case. In addition, the pIC50 in [8], in assay [9] and in [10] was < 5.00 in each case. In addition, the IC50 in assay [4] and in assay [5] was > 10 µM each time.
With `COc1cc2ncnc(Nc3cccc(Cl)c3F)c2cc1CN(CCN(C)C)[C@@H](C)C(N)=O`, the pIC50 in assay [1], in assay [2], in assay [3], in [6], in assay [12] and in assay [7] was < 5.00 each time. For the same compound, the negative-log IC50 (pIC50) in assay [8], in assay [9] and in assay [10] was < 5.00 each time. The IC50 in assay [4] and in assay [5] was > 10 µM in each case.
On to `COc1cc2ncnc(Nc3cccc(Cl)c3F)c2cc1CN(C)[C@@H](CO)C(N)=O`, for which the IC50 (at MAP kinase p38; in assay [4]; in [5]) was > 10 µM throughout. For the same compound, the pIC50 in assay [1], in assay [2], in assay [3], in [6], in [7] and in [8] was < 5.00 throughout. Also, the pIC50 in assay [9] and in assay [10] was < 5.00 throughout.
For `COc1cc2ncnc(Nc3cccc(Cl)c3F)c2cc1CN(C)C1CCNC1=O` (stereo unspecified), the IC50 (at MAP kinase p38; in assay [4]; in assay [5]) was > 10 µM throughout. Further, the pIC50 in assay [1], in assay [2], in [3], in assay [6], in assay [7] and in assay [8] was < 5.00 in each case. In addition, the pIC50 in assay [9] and in assay [10] was < 5.00 throughout.
Turning to `CNC(=O)[C@H]1CCCN1Cc1cc2c(Nc3cccc(Cl)c3F)ncnc2cc1OC`, the IC50 (at MAP kinase p38; in assay [4]; in assay [5]) was > 10 µM in each case. In addition, the negative logarithm of the IC50 (pIC50) in assay [1], in assay [2], in assay [3], in assay [6], in [7] and in [8] was < 5.00 each time. The pIC50 in assay [9] and in assay [10] was < 5.00 each time.
Regarding `COCCN(Cc1cc2c(Nc3cccc(Cl)c3F)ncnc2cc1OC)[C@@H](C)C(N)=O`, the negative logarithm of the IC50 (pIC50) in [1], in [2], in assay [3], in assay [6], in [12] and in [7] was < 5.00 in each case. Besides, the negative logarithm of the IC50 (pIC50) in assay [8], in assay [9] and in assay [10] was < 5.00 in each case. Also, the IC50 in [4] and in assay [5] was > 10 µM each time.
Turning to `COc1cc2ncnc(Nc3cccc(Cl)c3F)c2cc1CN1CC[C@H](C(N)=O)C1`, the pIC50 in assay [1], in [2], in assay [3], in assay [6], in [12] and in assay [7] was < 5.00 in each case. For the same compound, the negative-log IC50 (pIC50) in [8], in assay [9] and in assay [10] was < 5.00 each time. Further, the IC50 in assay [5] is > 10 µM.
Consider `COc1cc2ncnc(Nc3cccc(Cl)c3F)c2cc1CN(C)[C@H](C)C(=O)N(C)C`, for which the pIC50 in assay [1], in [2], in [3], in assay [6], in assay [7] and in assay [8] was < 5.00 each time. In addition, the negative-log IC50 (pIC50) in assay [9] and in assay [10] was < 5.00 throughout. In addition, the IC50 in assay [4] and in assay [5] was > 10 µM each time.
For `COc1cc2ncnc(Nc3cccc(Cl)c3F)c2cc1CN1CC(C(N)=O)C1`, the negative-log IC50 (pIC50) in assay [1], in [2], in [3], in assay [6], in assay [7] and in assay [8] was < 5.00 each time. In addition, the pIC50 in [9] and in assay [10] was < 5.00 each time. Also, the IC50 in assay [4] and in assay [5] was > 10 µM in each case.

By pIC50 is commonly meant −log10 of the IC50, conventionally taken in molar units. As usually defined, the IC50 is the concentration that inhibits the measured activity by half. Lower therefore signals greater potency in that assay.
